Measurements as given in US11285127B2, “Compositions and methods for lowering triglycerides without raising LDL-C levels in a subject on concomitant statin therapy” (Amarin Pharmaceuticals Ireland Limited, priority 2013, dated 2022).

Tested on: patients with fasting triglyceride levels >200 mg/dl and <500 mg/dl despite statin therapy
Assay: 12-week study: lipid profile (TC, LDL-C, HDL-C, non-HDL-C, VLDL-C, VLDL-TG, RLP-C)
Format: in vivo, human
Conditions: MITT
Source text: Parameters (a)-(z) can be measured in accordance with any clinically acceptable methodology. For example, triglycerides, total cholesterol, HDL-C and fasting blood sugar can be sample from serum and analyzed using standard photometry techniques. VLDL-TG, LDL-C and VLDL-C can be calculated or determined using serum lipoprotein fractionation by preparative ultracentrifugation and subsequent quantitative analysis by refractometry or by analytic ultracentrifugal methodology. Apo A1, Apo B and hsCRP can be determined from serum using standard nephelometry techniques. Lipoprotein (a) can be determined from serum using standard turbidimetric immunoassay techniques. LDL particle number and particle size can be determined using nuclear magnetic resonance (NMR) spectrometry. Remnants lipoproteins and LDL-phospholipase A2 can be determined from EDTA plasma or serum and serum, respectively, using enzymatic immunoseparation techniques. Oxidized LDL, intercellular adhesion molecule-1 and interleukin-2 levels can be determined from serum using standard enzyme immunoassay techniques. These techniques are described in detail in standard textbooks, for example Tietz Fundamentals of Clinical Chemistry, 6th Ed. (Burtis, Ashwood and Borter Eds.), WB Saunders Company.
A multi-center, placebo-controlled, randomized, double-blind, 12-week study was performed to evaluate the efficacy and safety of >96% E-EPA in patients with fasting triglyceride levels >200 mg/dl and <500 mg/dl despite statin therapy (the mean of two qualifying entry values needed to be >185 mg/dl and at least one of the values needed to be >200 mg/dl). The primary objective of the study was to determine the efficacy of >96% E-EPA 2 g daily and 4 g daily, compared to placebo, in lowering fasting TG levels in patients with high risk for cardiovascular disease and with fasting TG levels 200 mg/dl and <500 mg/dl, despite treatment to LDL-C goal on statin therapy.
The secondary objectives of this study were the following: • 1. To determine the safety and tolerability of >96% E-EPA 2 g daily and 4 g daily; • 2. To determine the effect of >96% E-EPA on lipid and apolipoprotein profiles including total cholesterol (TC), non-high-density lipoprotein cholesterol (non-HDL-C), low density lipoprotein cholesterol (LDL-C), high density lipoprotein cholesterol (HDL-C), and […]; • 3. To determine the effect of >96% E-EPA on lipoprotein associated phospholipase A2 (Lp-PLA2) from baseline to week 12; • 4. To determine the effect of >96% E-EPA on low-density lipoprotein (LDL) particle number and size; • 5. To determine the effect of >96% E-EPA on oxidized LDL; • 6. To determine the effect of >96% E-EPA on fasting plasma glucose (FPG) and hemoglobin A1c (HbA1c); • 7. To determine the effect of >96% E-EPA on insulin resistance; • 8. To determine the effect of >96% E-EPA on high-sensitivity C-reactive protein (hsCRP); • 9. To determine the effects of >96% E-EPA 2 g daily and 4 g daily on the incorporation of fatty acids into red blood cell membranes and into plasma phospholipids; • 10. To explore the relationship between baseline fasting TG levels and the reduction in fasting TG levels; and • 11. To explore the relationship between changes of fatty acid concentrations in plasma and red blood cell membranes, and the reduction in fasting TG levels.
The primary efficacy variable for the double-blind treatment period was percent change in TG from baseline to Week 12 endpoint. […]

[1] = AMR 101 2 g + statin, Atorva subgroup
[2] = AMR 101 2 g + statin, Rosuva subgroup
[3] = AMR 101 2 g + statin, Simva subgroup
[4] = AMR 101 2 g + statin, Statin Potency High
[5] = AMR 101 2 g + statin, Statin Potency Low
[6] = AMR 101 2 g + statin, Statin Potency Medium
[7] = AMR 101 2 g + statin, Diabetes No, Week 12 endpoint
[8] = AMR 101 2 g + statin, Diabetes Yes, Week 12 endpoint
[9] = AMR 101 2 g + statin, Non-statin Washout No, Week 12 endpoint
[10] = AMR 101 2 g + statin, Non-statin Washout Yes, Week 12 endpoint
[11] = AMR 101 2 g + statin, baseline TG tertile Highest (≥289.5 mg/dL), Week 12 endpoint
[12] = AMR 101 2 g + statin, baseline TG tertile Lowest (<230.5 mg/dL), Week 12 endpoint
[13] = AMR 101 2 g + statin, baseline TG tertile Middle (230.5 to <289.5 mg/dL), Week 12 endpoint
[14] = AMR101 2 g/d + statin, Week 12 endpoint
[15] = AMR101 2 g/d + statin, percent change from baseline to Week 12 endpoint
[16] = AMR 101 4 g + statin, Atorva subgroup

## CC/C=C\C/C=C\C/C=C\C/C=C\C/C=C\CCCC(=O)OCC [AMR101, ethyl eicosapentaenoate]
[1]
  LDL-C Median % chg from BL: 4.9%
  LDL-C, Diff from pbo (Hodges-Lehmann median difference): 1.1
  LDL-C, EOT (Week 12 endpoint) median: 88.0
  Non-HDL-C Median % chg from BL: 10.5%
  Non-HDL-C, Diff from pbo (Hodges-Lehmann median difference): 2.0
  Non-HDL-C, EOT (Week 12 endpoint) median: 135.0
[2]
  LDL-C Median % chg from BL: 4.3%
  LDL-C, Diff from pbo (Hodges-Lehmann median difference): −4.2
  LDL-C, EOT (Week 12 endpoint) median: 87.0
  Non-HDL-C Median % chg from BL: 2.7%
  Non-HDL-C, Diff from pbo (Hodges-Lehmann median difference): −9.0
  Non-HDL-C, EOT (Week 12 endpoint) median: 133.0
[3]
  LDL-C Median % chg from BL: 1.8%
  LDL-C, Diff from pbo (Hodges-Lehmann median difference): −4.8
  LDL-C, EOT (Week 12 endpoint) median: 88.0
  Non-HDL-C Median % chg from BL: 0.0%
  Non-HDL-C, Diff from pbo (Hodges-Lehmann median difference): −6.8
  Non-HDL-C, EOT (Week 12 endpoint) median: 133.5
[4]
  LDL-C Median % chg from BL: 3.1%
  LDL-C, Diff from pbo (Hodges-Lehmann median difference): −1.7
  LDL-C, EOT (Week 12 endpoint) median: 91.0
  Non-HDL-C Median % chg from BL: 5.4%
  Non-HDL-C, Diff from pbo (Hodges-Lehmann median difference): −3.5
  Non-HDL-C, EOT (Week 12 endpoint) median: 142
[5]
  LDL-C Median % chg from BL: 0.9%
  LDL-C, Diff from pbo (Hodges-Lehmann median difference): 7.1
  LDL-C, EOT (Week 12 endpoint) median: 95.0
  Non-HDL-C Median % chg from BL: −2.2%
  Non-HDL-C, Diff from pbo (Hodges-Lehmann median difference): 3.3
  Non-HDL-C, EOT (Week 12 endpoint) median: 135
[6]
  LDL-C Median % chg from BL: 2.4%
  LDL-C, Diff from pbo (Hodges-Lehmann median difference): −5.9
  LDL-C, EOT (Week 12 endpoint) median: 85.0
  Non-HDL-C Median % chg from BL: 1.7%
  Non-HDL-C, Diff from pbo (Hodges-Lehmann median difference): −7.1
  Non-HDL-C, EOT (Week 12 endpoint) median: 133
[7]
  LDL-C Diff from pbo (median % chg, Hodges-Lehmann): −3.1%
  LDL-C EOT Median: 88.0 mg/dL
  LDL-C Median % chg from BL: 2.6%
  Non-HDL-C Diff from pbo (median % chg, Hodges-Lehmann): −8.6%
  Non-HDL-C EOT Median: 133 mg/dL
  Non-HDL-C Median % chg from BL: −0.7%
[8]
  LDL-C Diff from pbo (median % chg, Hodges-Lehmann): −3.8%
  LDL-C EOT Median: 87.0 mg/dL
  LDL-C Median % chg from BL: 2.2%
  Non-HDL-C Diff from pbo (median % chg, Hodges-Lehmann): −4.4%
  Non-HDL-C EOT Median: 135 mg/dL
  Non-HDL-C Median % chg from BL: 5.1%
[9]
  LDL-C Diff from pbo (median % chg, Hodges-Lehmann): −1.2%
  LDL-C EOT Median: 91.5 mg/dL
  LDL-C Median % chg from BL: 3.5%
  Non-HDL-C Diff from pbo (median % chg, Hodges-Lehmann): −4.6%
  Non-HDL-C EOT Median: 135 mg/dL
  Non-HDL-C Median % chg from BL: 3.8%
[10]
  LDL-C Diff from pbo (median % chg, Hodges-Lehmann): −6.3%
  LDL-C EOT Median: 85.0 mg/dL
  LDL-C Median % chg from BL: 2.2%
  Non-HDL-C Diff from pbo (median % chg, Hodges-Lehmann): −6.9%
  Non-HDL-C EOT Median: 133 mg/dL
  Non-HDL-C Median % chg from BL: 0.0%
[11]
  LDL-C Diff from pbo (median % chg, Hodges-Lehmann): −2.0%
  LDL-C EOT Median: 85.0
  LDL-C Median % chg from BL: 1.7%
  Non-HDL-C Diff from pbo (median % chg, Hodges-Lehmann): −5.0%
  Non-HDL-C EOT Median: 150
  Non-HDL-C Median % chg from BL: 3.0%
[12]
  LDL-C Diff from pbo (median % chg, Hodges-Lehmann): −5.7%
  LDL-C EOT Median: 92.0
  LDL-C Median % chg from BL: 3.1%
  Non-HDL-C Diff from pbo (median % chg, Hodges-Lehmann): −4.2%
  Non-HDL-C EOT Median: 129
  Non-HDL-C Median % chg from BL: 6.9%
[13]
  LDL-C Diff from pbo (median % chg, Hodges-Lehmann): −2.6%
  LDL-C EOT Median: 86.5
  LDL-C Median % chg from BL: 3.1%
  Non-HDL-C Diff from pbo (median % chg, Hodges-Lehmann): −7.0%
  Non-HDL-C EOT Median: 132
  Non-HDL-C Median % chg from BL: −1.2%
AMR101 2 g/d + statin
  HDL-C Week 12 EP Median (IQR): 38.0 (11.0) mg/dL
  LDL-C Week 12 EP Median (IQR): 87.0 (27.0) mg/dL
  Non-HDL-C Week 12 EP Median (IQR): 134.0 (41.0) mg/dL
  RLP-C Week 12 EP Median (IQR): 11.0 (7.0) mg/dL
  Total cholesterol Week 12 EP Median (IQR): 175.0 (44.0) mg/dL
  VLDL-C Week 12 EP Median (IQR): 44.0 (25.0) mg/dL
  VLDL-TG Week 12 EP Median (IQR): 168.0 (98.0) mg/dL
[14]
  HDL-C Percent change from Baseline Median (IQR): 0 (19.5) %
  LDL-C Percent change from Baseline Median (IQR): 2.4 (26.1) %
  Non-HDL-C Percent change from Baseline Median (IQR): 2.4 (26.1) %
  RLP-C Percent change from Baseline Median (IQR): −11.1 (40.0) %
  Total cholesterol Percent change from Baseline Median (IQR): 2.1 (19.6) %
  VLDL-C Percent change from Baseline Median (IQR): 1.6 (54.6) %
  VLDL-TG Percent change from Baseline Median (IQR): −2.1 (48.9) %
[15]
  HDL-C Difference from placebo Estimated median: −2.2%
  LDL-C Difference from placebo Estimated median: −3.6%
  Non-HDL-C Difference from placebo Estimated median: −5.5%
  RLP-C Difference from placebo Estimated median: −16.7%
  Total cholesterol Difference from placebo Estimated median: −4.8%
  VLDL-C Difference from placebo Estimated median: −10.5%
  VLDL-TG Difference from placebo Estimated median: −11.3%
[16]
  LDL-C Median % chg from BL: 9.0%
  LDL-C, Diff from pbo (Hodges-Lehmann median difference): 2.5
  LDL-C, EOT (Week 12 endpoint) median: 82.5
  Non-HDL-C Median % chg from BL: −6.3%
